Legend:
Assay type in all cases: in vivo
[1] = system: Phakopsora pachyrhizi containing the amino acid substitution F129L in the mitochondrial cytochrome b protein; experiment: Use Example 2: protective control of soybean rust on soybeans (PHAKPA P6); conditions: inoculated six days after spraying, % diseased leaf area
How it was run: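 Compound in acetone and/or DMSO with Wettol (99:1), diluted with water, was sprayed to run-off on potted soybean seedlings. After six days at 23–27°C and 60–80% RH, plants were inoculated with a Qo-resistant F129L strain and held 24 h at about 95% RH. Percent diseased leaf area was scored visually after up to 14 days.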

[2] = system: Puccinia recondita; experiment: Use Example 4: preventative control of brown rust on wheat (PUCCRT P7); conditions: inoculated seven days after spraying, % diseased leaf area
How it was run: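 First two leaves of potted wheat seedlings sprayed to run-off with compound in acetone/DMSO–emulsifier–water, then inoculated with Puccinia recondita spores seven days later. Plants held 24 h dark at 95–99% RH and 20–24 °C, then 9–11 days in greenhouse; diseased leaf area (%) scored visually.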

[3] = system: Phakopsora pachyrhizi containing the amino acid substitution F129L in the mitochondrial cytochrome b protein; experiment: Use Example 1: protective control of soybean rust on soybeans (PHAKPA P2); conditions: inoculated 2 days after spraying, % diseased leaf area
How it was run: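 Soybean seedling leaves sprayed to run-off with compound in acetone/DMSO–Wettol–water at the stated concentration, kept 2 days at 23-27° C, then inoculated with Qo-inhibitor-resistant F129L P. pachyrhizi. After 24 h at ~95% RH, 20-24° C, and up to 14 days in greenhouse, % diseased leaf area scored visually.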

[4] = system: Puccinia recondita; experiment: Use Example 3: curative control of brown rust on wheat (PUCCRT K4); conditions: % diseased leaf area
Description: The compound was dissolved in a mixture of acetone and/or dimethylsulfoxide and the wetting agent/emulsifier Wettol, which is based on ethoxylated alkylphenoles, in a ratio (volume) solvent-emulsifier of 99 to 1 to give a total volume of 5 ml. Subsequently, water was added to total volume of 100 ml. This stock solution was then diluted with the described solvent-emulsifier-water mixture to the final concentration given in the tables below.
Use Example 3. Curative Control of Brown Rust on Wheat Caused by Puccinia recondita (PUCCRT K4)
The first two developed leaves of potted wheat seedling were dusted with spores of Puccinia recondita. To ensure the success the artificial inoculation, the plants were transferred to a humid chamber without light and a relative humidity of 95 to 99% and 20 to 24° C. for 24 h. The next 3 days the plants were cultivated in a greenhouse chamber at 20 to 24° C. and a relative humidity between 65 and 70%. Then the plants were sprayed to run-off with previously described spray solution, containing the concentration of active ingredient or their mixture as described below. The plants were allowed to air-dry. Then the trial plants were cultivated for 5 to 7 days in a greenhouse chamber at 20 to 24° C. and a relative humidity between 65 and 70%. The extent of fungal attack on the leaves was visually assessed as % diseased leaf area, the disease level of untreated controls was usually between 80 and 100%.

Compound | % PHAKPA (F129L) Disease level P6 at 4 ppm [1] [%] | % PHAKPA (F129L) Disease level P6 at 16 ppm [1] [%] | % PUCCRT Disease level P7 at 4 ppm [2] [%] | % PUCCRT Disease level P7 at 16 ppm [2] [%] | % PHAKPA (F129L) Disease level P2 at 4 ppm [3] [%] | % PHAKPA (F129L) Disease level P2 at 16 ppm [3] [%] | % PUCCRT Disease level K4 at 4 ppm [4] [%] | % PUCCRT Disease level K4 at 16 ppm [4] [%]
CNC(=O)/C(=N/OC)c1cccc(Cl)c1CO/N=C(\COC)c1ccccc1Cl [compound 50] | 87 | 36 | 70 | 33 | 92 | 32 | 75 | 72
CNC(=O)/C(=N/OC)c1cccc(Cl)c1CO/N=C(\COC)c1ccc(Cl)c(Cl)c1 [compound 69] | 15 | 1 | 7 | 3 | 43 | 7 | 33 | 3
CO/C=C(/C(=O)OC)c1cccc(Cl)c1CO/N=C(\COC)c1ccccc1F [compound 13, Methyl-(E)-2-[3-chloro-2-[[(Z)-[1-(2-fluorophenyl)-2-methoxy-ethylidene]amino]oxymethyl]phenyl]-3-methoxy-prop-2-enoate] | 4 | 0 | 67 | 18 | 5 | 0 | 67 | 4
CCOC/C(=N\OCc1c(Cl)cccc1/C(=N\OC)C(=O)OC)c1ccccc1F [compound 20] | 63 | 63 | 70 | 57 | 60 | 43 | 80 | 77
CCOC/C(=N\OCc1c(Cl)cccc1/C(=N\OC)C(=O)NC)c1ccc(Cl)cc1 [compound 46] | 68 | 16 | 60 | 10 | 80 | 20 | 67 | 38
CCOC/C(=N\OCc1c(Cl)cccc1/C(=C\OC)C(=O)OC)c1cccc(F)c1 [compound 27] | 17 | 1 | 40 | 7 | 5 | 0 | 57 | 12
CCOC/C(=N\OCc1c(Br)cccc1/C(=C\OC)C(=O)OC)c1ccc(F)cc1 [compound 66] | 13 | 1 | 27 | 4 | 11 | 1 | 62 | 8
CCOC/C(=N\OCc1c(Cl)cccc1/C(=N\OC)C(=O)NC)c1cccc(F)c1 [compound 42] | 32 | 4 | 62 | 12 | 11 | 0 | 70 | 42
CO/C=C(/C(=O)OC)c1cccc(Cl)c1CO/N=C(\COC)c1c(F)ccc(F)c1F [compound 113] | 10 | 1 | 70 | 10 | 1 | 0 | 77 | 13
CCOC/C(=N\OCc1c(Cl)cccc1/C(=N\OC)C(=O)NC)c1ccc(F)cc1 [compound 48] | 80 | 17 | 63 | 17 | 80 | 7 | 77 | 50
CNC(=O)/C(=N/OC)c1cccc(Cl)c1CO/N=C(\COC)c1c(F)cc(Cl)cc1F [compound 102] | 16 | 2 | 32 | 6 | 21 | 1 | 80 | 36
CO/C=C(/C(=O)OC)c1cccc(Cl)c1CO/N=C(\COC)c1ccc(Cl)c(Cl)c1 [compound 71] | 28 | 7 | 4 | 3 | 31 | 4 | 34 | 3
CO/C=C(/C(=O)OC)c1cccc(Cl)c1CO/N=C(\COC)c1ccc(F)cn1 [compound 131, Methyl (E)-2-[3-chloro-2-[[(Z)-[1-(5-fluoro-2-pyridyl)-2-methoxy-ethylidene]amino]oxymethyl]phenyl]-3-methoxy-prop-2-enoate] | 1 | 0 | 32 | 1 | 1 | 0 | 2 | 0
COC/C(=N\OCc1c(Cl)cccc1/C(=N\OC)C(=O)OC)c1ccc(F)cc1F [compound 62] | 6 | 0 | 55 | 1 | 5 | 0 | 37 | 2
